Here are results for two substances from paper doi:10.1101/2020.07.29.226878v1 (bioRxiv, 2020).

One test concerns Acheta domesticus. The following applies: tested in Acheta domesticus; cited from earlier work.
Test [1] deals with sheep blowflies (Lucilia cuprina). The experiment in a line: In vivo insecticidal assay, intrathoracic injection into sheep blowflies.

As for ponericin G1, in the test on Acheta domesticus, the “LD50 at 24 h” value was 25.7 nmol/g.
As for “Δ-pseudomyrmecitoxin-Pp1a [Δ-PSDTX-Pp1a]”, in test [1], the “LD50 in blow fly assays (abstract)” value was found to be 3 nM.
